According to patent US9562053B2, “Benzo-fused heterocyclic derivatives useful as agonists of GPR120” (Janssen Pharmaceutica NV, priority 2013, dated 2017):

Target: T1, Human GPR120 short form (Homo sapiens, UniProt Q5NUL3)
T1 construct: expressed in transfected cells
T1 sequence (Q5NUL3 1-361): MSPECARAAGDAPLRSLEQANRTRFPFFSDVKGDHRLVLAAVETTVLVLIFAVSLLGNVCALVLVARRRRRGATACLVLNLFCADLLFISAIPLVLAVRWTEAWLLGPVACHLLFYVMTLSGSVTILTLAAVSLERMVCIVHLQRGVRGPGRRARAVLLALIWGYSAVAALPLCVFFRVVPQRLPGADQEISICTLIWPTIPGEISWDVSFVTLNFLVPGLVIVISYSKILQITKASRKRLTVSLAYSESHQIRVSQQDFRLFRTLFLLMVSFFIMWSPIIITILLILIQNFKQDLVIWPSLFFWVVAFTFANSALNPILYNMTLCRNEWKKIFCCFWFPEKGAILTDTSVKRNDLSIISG
Test: Human GPR120 in Calcium Flux Assay, Procedure Calcium A (2500 cells/well)
Type: cell-based
Text: This in vitro assay serves to assess test compound agonist activity against the short splice variant (SVS with Accession number NM_001195755.1 confirmed by sequencing data) of the GPR120 receptor. The Human Short splice variant #2 (NM_001195755.1) is missing an in-frame coding exon compared to variant 1 (the Human Long splice variant NM_181745.3), resulting in a shorter isoform (GPR120-S) lacking a 16 aa protein segment compared to isoform GPR120-L. The assay platform utilizes HEK-293 cells stably transfected to express the Human GPR120 short form. These cells are first loaded with the Ca^+2 sensitive dye, Fluo-4 NW. Upon stimulation, intracellular released Ca^+2 can bind to the dye and alter its fluorescence intensity. This increase in fluorescence signal, and thus the flux in intracellular [Ca^+2], is detected and quantitated by fluorescence imaging using a FLIPR reader. The effect of the agonist is measured as a function of concentration and used to calculate an EC50 based upon a response curve.
In this procedure 2500 cells/well were employed.
A Human GPR120 clone (Genbank accession number NM_001195755.1) was placed into the pcDNA3.1 mammalian expression vector carrying the neomycin resistance gene. A stable mammalian cell was generated by placing the above clone into a HEK293 background. Clonal cells responding to long chain fatty acids had expression levels of GPR120 confirmed by RT-qPCR. Human HEK-GPR120 cells were cultured in Dulbecco's Modified Eagle's Medium (DMEM)/F12 medium supplemented with 10% fetal bovine serum (FBS), 1% L-Glutamine and 1% penicillin/streptomycin and 0.5 mg/ml G-418. Cells were split 2 times a week to keep the cells in the log-phase growth.
In preparation for the assay, HEK cells stably transfected with Human GPR120 (2.5K cells per well in 25 uL growth medium) were seeded into 384-well plates and then incubated overnight (37° C., 5% CO2). The next day, the media was changed to 20 μl assay buffer and the cell starved for 1 h at 37° C. The dye loading solution (2× dye) was prepared using 10 ml assay buffer, 100 μl of 250 mM probenecid, 1 bottle of Component A, and 20 μl of dye in DMSO. Twenty μl of the 2× dye loading buffer was then added to each well. The plates were incubated at 37° C. for 30 min, then at room temperature for an additional 15 minutes, before performing the assay on FLIPR.
Test compounds were prepared in assay buffer (2 μl of test compound+198 μl assay buffer, final DMSO in assay plate is 0.2%) at the desired concentration, more particularly at 100 μM, 50 μM, 25 μM, 12.5 μM, 6.25 μM, 3.125 μM, 1.562 μM, 0.781 μM, 0.391 μM, 0.195 μM, 0.098 μM, 0.049 μM, 0.024 μM and 0.012 μM.
The assay was performed on a FLIPR plate reader using the following parameters. Baseline was read for 10 seconds at 1 sec intervals. The program was set to transfer 10 μL of ligand from compound plate to cell plate after baseline reading. Aspiration was executed at: 10 μl/sec speed, 4.6 μl height; Dispensing was executed at: 30 μl/sec speed, 45 μl height. After compound addition, each well was read for 300 sec, with measurements collected at 1 sec intervals.
The kinetic data from the FLIPR was based upon a 5 minute window for data collection. The fluorescence of each sample well was used for individual calculations of a normalized RFU value, which was defined as maximum response minus the minimum response. The normalized fluorescence reading (RFU) was calculated as follows: RFU=Fmax−Fmin
The data were fitted to a sigmoidal dose-response curve with a variable Hill slope (<2) using nonlinear regression with GraphPad Prism 5.0 to calculate the EC50 values. The Fitting Equation was: Y=Bottom+(Top−Bottom)/(1+10^((LogEC50−X)*HillSlope)), where X is the log of the concentration and Y is the response.

Compound | EC50
Cc1cc2c(COc3c(F)cc(CCCO)cc3F)cc(Cl)cc2s1 [Compound 103, 3-{4-[(6-Chloro-2-methyl-1-benzothiophen-4-yl)methoxy]-3,5-difluorophenyl}propan-1-ol] | 3000 nM
Cc1c(CCC(=O)O)ccc(OCc2cc(F)cc3cc(Cc4ccccc4)oc23)c1C [Compound 20, 3-{4-[(2-Benzyl-5-fluoro-1-benzofuran-7-yl)methoxy]-2,3-dimethylphenyl}propanoic acid] | 5290 nM
Cc1oc2c(COc3c(Br)cc(CCC(=O)O)c(C)c3C)cc(OC(F)(F)F)cc2c1Br [Compound 120, 3-(5-Bromo-4-{[3-bromo-2-methyl-5-(trifluoromethoxy)-1-benzofuran-7-yl]methoxy}-2,3-dimethylphenyl)propanoic acid] | 1540 nM
Cc1c(CCC(=O)O)ccc(OCc2cc(F)cc3cc(CO)oc23)c1C [Compound 14, 3-(4-{[5-Fluoro-2-(hydroxymethyl)-1-benzofuran-7-yl]methoxy}-2,3-dimethylphenyl)propanoic acid] | 1320 nM
CCc1cc2cc(C#N)cc(COc3ccc(CCC(=O)O)c(C)c3C)c2o1 [Compound 123, 3-(4-((5-cyano-2-ethylbenzofuran-7-yl)methoxy)-2,3-dimethylphenyl)propanoic acid] | 1410 nM
Cc1c(CCC(=O)O)ccc(OCc2cc(F)cc3cc(CCO)oc23)c1C [Compound 15, 3-(4-{[5-Fluoro-2-(2-hydroxyethyl)-1-benzofuran-7-yl]methoxy}-2,3-dimethylphenyl)propanoic acid] | 4750 nM
Cc1c(CCC(=O)O)ccc(OCc2cc(F)cc3cc(CC4CCCC4)oc23)c1C [Compound 19, 3-(4-{[2-(Cyclopentylmethyl)-5-fluoro-1-benzofuran-7-yl]methoxy}-2,3-dimethylphenyl)propanoic acid] | 1680 nM
Cc1cc2c(COc3c(F)cc(CCC(=O)O)cc3F)cc(Cl)cc2s1 [Compound 102, 3-{4-[(6-Chloro-2-methyl-1-benzothiophen-4-yl)methoxy]-3,5-difluorophenyl}propanoic acid] | > 5000 nM
Cc1cc2c(COc3ccc(CCC(=O)O)c(C)c3C)cc(Cl)cc2s1 [Compound 101, 3-{4-[(6-Chloro-2-methyl-1-benzothiophen-4-yl)methoxy]-2,3-dimethylphenyl}propanoic acid] | 3200 nM
Cc1c(CCC(=O)O)ccc(OCc2cc(F)cc3cc(CCC(C)C)oc23)c1C [Compound 9, 3-(4-{[5-Fluoro-2-(3-methylbutyl)-1-benzofuran-7-yl]methoxy}-2,3-dimethylphenyl)propanoic acid] | 2750 nM
Cc1cc2cc(CCCS(C)(=O)=O)cc(COc3ccc(CCC(=O)O)c(C)c3C)c2o1 [Compound 100, 3-[2,3-Dimethyl-4-({2-methyl-5-[3-(methylsulfonyl)propyl]-1-benzofuran-7-yl}methoxy)phenyl]propanoic acid] | > 5000 nM
Cc1cc2cc(C#CCS(C)(=O)=O)cc(COc3ccc(CCC(=O)O)c(C)c3C)c2o1 [Compound 99, 3-[2,3-Dimethyl-4-({2-methyl-5-[3-(methylsulfonyl)prop-1-yn-1-yl]-1-benzofuran-7-yl}methoxy)phenyl]propanoic acid] | > 5000 nM

These reach a lower EC50. Values come first.

EC50 | Compound
1110 nM | CCc1cc2cc(F)cc(COc3cc(C)c(CCC(=O)O)cn3)c2o1 [Compound 33, 3-{6-[(2-Ethyl-5-fluoro-1-benzofuran-7-yl)methoxy]-4-methylpyridin-3-yl}propanoic acid]
1020 nM | CCCc1cc2cc(Cl)cc(COc3cc(C)c(CCC(=O)O)cn3)c2o1 [Compound 34, 3-{6-[(5-Chloro-2-propyl-1-benzofuran-7-yl)methoxy]-4-methylpyridin-3-yl}propanoic acid]
759 nM | CCc1cc2cc3c(c(COc4ccc(CCC(=O)O)c(C)c4C)c2o1)CC(C)(C)O3 [Compound 30, 3-{4-[(6-Ethyl-2,2-dimethyl-2,3-dihydrobenzo[1,2-b:4,5-b′]difuran-4-yl)methoxy]-2,3-dimethylphenyl}propanoic acid]
673 nM | CCc1cc2cc(OC(F)(F)F)cc(COc3cc(CC(C)C)c(CCC(=O)O)cc3F)c2o1 [Compound 53, 3-[4-{[2-Ethyl-5-(trifluoromethoxy)-1-benzofuran-7-yl]methoxy}-5-fluoro-2-(2-methylpropyl)phenyl]propanoic acid]
424 nM | COCCc1cc2cc(F)cc(COc3ccc(CCC(=O)O)c(C)c3C)c2o1 [Compound 10, 3-(4-{[5-Fluoro-2-(2-methoxyethyl)-1-benzofuran-7-yl]methoxy}-2,3-dimethylphenyl)propanoic acid]
417 nM | Cc1cc2cc(Cl)cc(COc3c(F)cc(CCC(=O)O)cc3F)c2s1 [Compound 92, 3-{4-[(5-Chloro-2-methyl-1-benzothiophen-7-yl)methoxy]-3,5-difluorophenyl}propanoic acid]
392 nM | CCc1cc2cc(OC(F)(F)F)cc(COc3cc(CCC(C)C)c(CCC(=O)O)cc3F)c2o1 [Compound 51, 3-[4-{[2-Ethyl-5-(trifluoromethoxy)-1-benzofuran-7-yl]methoxy}-5-fluoro-2-(3-methylbutyl)phenyl]propanoic acid]
274 nM | Cc1c(CCC(=O)O)ccc(OCc2cc(OC(F)(F)F)cc3cc(CCO)oc23)c1C [Compound 94, 3-(4-{[2-(2-Hydroxyethyl)-5-(trifluoromethoxy)-1-benzofuran-7-yl]methoxy}-2,3-dimethylphenyl)propanoic acid]
134 nM | Cc1nc2c(COc3ccc(CCC(=O)O)c(C)c3C)cc(Cl)cc2o1 [Compound 95, 3-{4-[(6-Chloro-2-methyl-1,3-benzoxazol-4-yl)methoxy]-2,3-dimethylphenyl}propanoic acid]
28 nM | C#Cc1cc(COc2ccc(CCC(=O)O)c(C)c2C)c2oc(CCC)cc2c1 [Compound 38, 3-{4-[(5-Ethynyl-2-propyl-1-benzofuran-7-yl)methoxy]-2,3-dimethylphenyl}propanoic acid]
